According to US10786445B2 (BIOGEN CHESAPEAKE LLC, priority 2010, dated 2020):
Several values for one entry are separate records, joined by “and”; a condition that tells them apart may be missing. Equal values may be shown once. Read-outs that look alike come from different tables or passages of the source. Marks after values point to notes of the source that are not given here.

Assays:
[1] = Study 101 Phase 1: plasma glyburide pharmacokinetics, bolus plus 72 h continuous infusion of RP-1127; format: in vivo, human
Procedure: All plasma concentration data were analyzed by nonlinear regression, simultaneously incorporating drug behavior during and after the infusion.

blood glucose = test: Study 101 Phase 1: blood glucose / hypoglycemia; details: for Effect on median blood glucose levels: FIG. 5; for Time at which dosing was stopped early due to the hypoglycemic effect: planned 72 h infusion
Procedure: Blood glucose was measured throughout the study, both to obtain pharmacodynamic information as well as for safety reasons. The dosing regimen was a bolus over 2 minutes followed by a continuous infusion for 72 hours.

[2] = In-use stability testing of glyburide solutions (PVC contact, in-line filter, flushing protocols); format: physicochemical
Text: One possible explanation is that glyburide adsorbs to PVC.

[3] = cited from earlier work
[4] = Preclinical experiments: filtering concentrated reconstituted glyburide, dilution into PVC-free bag; format: physicochemical
Procedure: In these experiments, the filtered material was diluted into a PVC-free bag (for example, the B Braun EXCEL L8000).
Patients in need of glyburide treatment include patients suffering from stroke, such as acute stroke (ischemic and hemorrhagic), traumatic brain injury (TBI), spinal cord injury (SCI), myocardial infarction (MI), shock (including hemorrhagic shock), organ ischemia, ventricular arrhythmias, ischemic injury; hypoxia/ischemia; and other injuries, conditions, and disorders.

[5] = Study 101 Phase 1: serum ALT and AST; format: in vivo, human; details: subject receiving 6 mg/day, treated with 4,309 calories over 24 hours, two thirds carbohydrates
[6] = Pharmacokinetics of glyburide after intravenous administration (published studies); format: in vivo, human
Text: All patents and publications discussed herein are hereby incorporated by reference in their entireties.

[7] = 0.4 mg/day, limit of detection 0.5 ng/mL
[8] = Study 101, 0.4 and 3.0 mg/day (N = 26), nonlinear regression
[9] = Jonsson et al. 2000, healthy males and females, data from Caucasian patients, N 10, i.v. dose 2.0 mg
[10] = McEwen et al. 1982, healthy males, N 20, i.v. dose 1.48 mg
[11] = Morrison et al. 1982, healthy males and females, N 8, i.v. dose 2.4 mg
[12] = Neugebauer et al. 1985, NIDDM males and females, N 20, i.v. dose 1.25 mg
[13] = Rogers et al. 1982, healthy males and females, N 8, i.v. dose 1 mg
[14] = Sorgel et al. 1997, healthy males, N 24, i.v. dose 1.5 mg
[15] = both sexes, human, in vivo, iv, Morrison et al. 1982, healthy males and females, N 8, i.v. dose 2.4 mg
[16] = both sexes, human, in vivo, iv, Neugebauer et al. 1985, NIDDM males and females, N 20, i.v. dose 1.25 mg
[17] = both sexes, human, in vivo, iv, Rydberg et al. 1995, healthy males and females, N 8, i.v. dose 1.0 mg, normalized to 70 kg
[18] = male, human, in vivo, iv, McEwen et al. 1982, healthy males, N 20, i.v. dose 1.48 mg

mean steady state glyburide concentration (Css) ([1]; 17.3 μg bolus plus 0.4 mg/day, 72 h infusion): 3.8 ng/mL
mean Css ([1]; 130 μg bolus plus 3 mg/day, 72 h infusion): 25.3 ng/mL
Mean glyburide plasma level at treatment cessation ([1]; 0.4 mg/day): 4.4 ng/mL
Reduction of mean glyburide plasma levels within one hour of treatment cessation ([1]; 0.4 mg/day): 54%
Hour by which plasma levels were below the limits of detection in 50% of the patients [1, 7]: ≤ 76 h
Hour by which plasma levels were below the limits of detection in 100% of patients [1, 7]: ≤ 96 h
Hour by which plasma levels were below the limits of detection in 50% of the subjects ([1]; 3 mg/day): ≤ 84 h
Hour by which plasma levels were below the limits of detection in 100% of patients ([1]; 3 mg/day): ≤ 96 h
Mean glyburide plasma level at cessation of dosing ([1]; 3 mg/day): 27.3 ng/mL
Reduction of mean glyburide plasma levels within 1 hour of cessation of dosing ([1]; 3 mg/day): 57%
clearance ([1]; Study 101, 0.4 and 3.0 mg/day (N = 26)): 54 mL/min/m^2
T1/2α [1, 8]: 0.44 h
T1/2β [1, 8]: 3.31 h
Time to steady state following bolus administration ([1]; Study 101, bolus plus continuous infusion): 8 to 20 h
Time of minimum plasma glyburide concentration after commencement of dosing (median) ([1]; Study 101, drop following the initial bolus loading dose): 1.25 to 1.5 h
Cmax ([1]; both sexes, human, plasma, intravenous, 17.3 μg bolus plus 0.4 mg/day, 72 h infusion): 7.2 ng/mL
concentration at 1 h after treatment cessation ([1]; both sexes, human, plasma, intravenous, 0.4 mg/day): 2 ng/mL
concentration at 1 h after cessation of dosing ([1]; both sexes, human, plasma, intravenous, 3 mg/day): 11.9 ng/mL
clearance ([1]; both sexes, human, plasma, intravenous, Study 101, 0.4 and 3.0 mg/day (N = 26), read-out: Clearance): 95 mL/min and 1.44 mL/min/kg
Cmax ([1]; human, plasma, intravenous, 130 μg bolus plus 3 mg/day, 72 h infusion, one patient, read-out: Cmax (of all individual subjects)): 50.7 ng/mL
concentration at 2 h ([1]; human, plasma, intravenous, 433 μg bolus plus 10 mg/day, single subject, at hour 2 (BG below 70 mg/dL)): 57.9 ng/mL
concentration at 12 h ([1]; human, plasma, intravenous, 6 mg/day, single subject, at H12 (BG 68 mg/dL)): 64 ng/mL
blood glucose levels (blood glucose; 433 μg bolus plus 10 mg/day, single subject, H12-H22): 52 to 53 mg/dL
BG (blood glucose; 433 μg bolus plus 10 mg/day, single subject, hour 2): below 70 mg/dL
morning serum glucose (blood glucose; 433 μg bolus plus 10 mg/day, single subject, hour 22): below 50 mg/dL
Hypoglycemia (blood glucose; 6 mg/day delivered as continuous infusion): severe hypoglycemia occurred
Time at which dosing was stopped early due to the hypoglycemic effect (blood glucose; 6 mg/day): around 32 hours
blood glucose levels (blood glucose; 6 mg/day, single subject, H0 to H8): above 70 mg/dL
blood glucose (blood glucose; 6 mg/day, single subject, after IV dextrose (10%) 100 cc/hour from approximately H29): 64 to 123 mg/dL
BG (blood glucose; 6 mg/day, single subject, at H12): 68 mg/dL
Hypoglycemia (blood glucose; 10 mg/day delivered as continuous infusion): severe hypoglycemia occurred
Time at which dosing was stopped early due to the hypoglycemic effect (blood glucose; 10 mg/day): around 24 hours
loss of glyburide in standard PVC bag ([2]; 10 μg/mL glyburide, PVC bag but not PVC tubing): acceptable amount of loss of glyburide
glyburide concentration after passage through a filter ([2]; 0.2 micron in-line filter): reduced
reduction in glyburide passing through the full chain of components ([2]; all components and flushing protocols): less than 10%
glyburide concentration on storage in PVC bags ([2]; glyburide concentrations below 10 μg/mL): reduced
glyburide concentration on contact with polyvinyl chloride (PVC) ([2]; solution passed through PVC tubing or stored in a PVC bag): reduced
Beta ([6]; Rydberg et al. 1995, healthy males and females, N 8, i.v. dose 1.0 mg, normalized to 70 kg): 0.52*‡ 1/h
clearance [6, 15]: 73.7 mL/min
half-life [6, 15]: 1.18 h
Vd [6, 16]: 11.6 L
clearance [6, 16]: 73.5 mL/min
Vd [6, 17]: 10.9 L
clearance [6, 17]: 91 mL/min
clearance ([6]; both sexes, human, plasma, iv, Jonsson et al. 2000, healthy males and females, data from Caucasian patients, N 10, i.v. dose 2.0 mg): 28 mL/min
Vd [6, 18]: 9.7 L
clearance [6, 18]: 48.7 mL/min
SMILES: COc1ccc(Cl)cc1C(=O)NCCc1ccc(S(=O)(=O)NC(=O)NC2CCCCC2)cc1 [Glyburide, 5-chloro-N-(4-[N-(cyclohexylcarbamoyl)sulfamoyl]phenethyl)-2-methoxybenzamide]
Dependence of pharmacokinetic parameters on covariates ([1]; Study 101): independent of dose, weight, height, body surface area, gender and age
Effect on median blood glucose levels (blood glucose; 0.4 mg/day vs placebo): very minor but visible effect on BG
Symptoms of hypoglycemia (blood glucose; 433 μg bolus plus 10 mg/day, single subject): classic symptoms of hypoglycemia but was always alert, oriented and conversant
Effect on median blood glucose levels (blood glucose; 3.0 mg/day vs placebo): more pronounced effect, without hypoglycemia
Signs of hypoglycemia (blood glucose; 6 mg/day, single subject, approximately H13.3, lasted 15 minutes): signs of hypoglycemia in the form of sweating (diaphoresis) and hunger
mean glyburide Cmax after administration of the bolus ([3]; Groop et al. 1987, bolus dose followed by continuous i.v. infusion): 240 ng/mL
Cmax [3, 9]: 196 ng/mL
clearance [3, 9]: 101.3 mL/min
t1/2 [3, 9]: 1.15 h
Beta [3, 10]: 0.3 h⁻¹
clearance [3, 10]: 49 mL/min
t1/2 [3, 10]: 2.46 h
Beta [3, 11]: 0.62 h⁻¹
Cmax [3, 11]: 648 ng/mL
Vd [3, 11]: 7.4 L
clearance [3, 11]: 73.7 mL/min
Beta [3, 12]: 0.38 h⁻¹
Cmax [3, 12]: 376 ng/mL
clearance [3, 12]: 73.5 mL/min
t1/2 [3, 12]: 1.82 h
Beta [3, 13]: 0.517 h⁻¹
t1/2 [3, 13]: 1.47 h
t1/2 ([3]; Rydberg et al. 1995, healthy males and females, N 8, i.v. dose 1.0 mg): 1.47 ± 0.42 h
Cmax [3, 14]: 331 ± 65 ng/mL
Tmax [3, 14]: 5.4 min
Vd [3, 14]: 11.22 ± 3 L
clearance [3, 14]: 74.7 ± 22 mL/min
t1/2 [3, 14]: 4.22 ± 1 h
t1/2 ([3]; Spraul et al. 1989, healthy males and females, N 52, i.v. dose 4.0 mg): 1.50 ± 0.36 h
Maximum glyburide plasma concentrations ([3]; range over studies: Rogers et al. 1982, Groop et al. 1987, Bank et al. 2000, Jonsson et al. 2000): 200 to 436 ng/mL
Effect of filtering on glyburide concentration ([4]; 0.2 micron filter, at least about 10 μg/mL, preferably about 0.5-1 mg/mL or greater): does not significantly decrease the glyburide concentration
Loss of glyburide from glyburide solutions ([4]; filter 1 mg/mL concentrate, dilute into PVC-free bag, unfiltered polyethylene lined tubing): effective to reduce the loss of glyburide
ALT and AST [5]: transient elevations in ALT and AST
